Reference: patent US4526787A, “N-heterocyclic retinoic acid analogues” (SRI International, priority 1983, dated 1985)

Key:
[1] = test system: Hamster Tracheal Organ Culture; assay: Tracheal organ culture assay: reversal of keratinization; assay type: cell-based
Method: (§1) The ODC assay measures a compound's ability to prevent the induction of ODC. The tracheal organ culture assay measures a compound's ability to reverse keratinization.
The tracheal organ culture assay is carried out as follows. Tracheas are taken from hamsters that are in very early stages of vitamin A deficiency and placed in organ culture. At the time of culture, the animals are still gaining weight; the tracheal epithelium is generally low columnar or cuboidal, with only occasional patches of squamous metaplasia. Each trachea is opened from the larynx to the carina along the membranous dorsal wall and cultured in a serum-free medium (CMRL-1066; with crystalline bovine insulin, 0.1 μg/ml; hydrocortisone hemisuccinate, 0.1 μg/ml; glutamine, 2 mM; penicillin, 100 units/ml; and streptomycin,100 μg/ml, added). Cultures are gassed with 50% oxygen, 45% nitrogen, and 5% CO2. The culture dishes are rocked at 35.5-36.0 degrees to allow the tracheas contact with both gas and medium. All tracheas are grown in medium containing no retinoid for the first 3 days. At the end of 3 days, some tracheas are harvested; almost of these tracheas have significant squamous metaplasia, and approximately 60% have keratinized lesions. The remaining tracheas are then divided into different groups which are treated with either: (1) retinoid dissolved in dimethylsulfoxide (final concentration of DMSO in culture medium is never greater than 0.1%) or (2) an equivalent amount of DMSO alone. Culture medium is changed three times a week, and all of the remaining tracheas are harvested at the end of 10 days in culture. Tracheas are fixed in 10% buffered formalin and embedded in paraffin. Cross sections of five micrometers are made through the mid-portion, stained with hematoxylin and eosin, and then scored with a microscope for the presence of keratin and keratohyaline granules, both of which are found in approximately 90% of control cultures that received no retinoid for the entire 10 day culture period.

Ornithine Decarboxylase = assay: ODC assay: inhibition of induction of ornithine decarboxylase by TPA in mouse skin; assay type: in vivo, mouse (female Charles River CD-1); details: topical, 1 hour before TPA (17 nmol)
Method: as §1
The ODC assay is carried out as follows. Female Charles River CD-1 mice from Charles River Breeding Laboratories, Wilmington, Mass., are used (age 7 to 9 weeks). The dorsal hair of the mice is shaved 1 to 2 days before testing, and only mice showing no hair regrowth are used. […] The test compound, at one of three dose levels (1.7, 17 and 170 nmol), dissolved in 0.2 mL of acetone is applied 1 hour before the TPA treatment to the test groups; the control group is treated with acetone alone. The mice are killed by cervical dislocation five hours after TPA treatment. Determinations are done in triplicate.
The epidermis is obtained from the sacrificed animals. To obtain sufficient material, the dorsal skins from 2 to 3 mice in each treatment group are pooled. […]
The supernatant fraction remaining after centrifugation of the homogenate at 10,000×g for 30 seconds at 0° C. is used for the enzyme assay. Enzyme activity is determined using the microassay for ODC as described by Verma and Boutwell to measure the release of ^14 CO2 from DL-[1-^14 C]-ornithine (58 mCi/mmol) after incubation with the 10,000×g supernatant. […]

Row | Structure (SMILES) | Reversal of Keratinization in Hamster Tracheal Organ Culture, Active/Total Cultures ([1]; Conc 10^-8 M) | Reversal of Keratinization in Hamster Tracheal Organ Culture, Active/Total Cultures (%) ([1]; Conc 10^-8 M) | Reversal of Keratinization in Hamster Tracheal Organ Culture, Active/Total Cultures ([1]; Conc 10^-9 M) | Reversal of Keratinization in Hamster Tracheal Organ Culture, Active/Total Cultures (%) ([1]; Conc 10^-9 M) | Reversal of Keratinization in Hamster Tracheal Organ Culture, Active/Total Cultures ([1]; Conc 10^-10 M) | Reversal of Keratinization in Hamster Tracheal Organ Culture, Active/Total Cultures (%) ([1]; Conc 10^-10 M) | Reversal of Keratinization in Hamster Tracheal Organ Culture, Active/Total Cultures ([1]; Conc 10^-11 M) | Reversal of Keratinization in Hamster Tracheal Organ Culture, Active/Total Cultures (%) ([1]; Conc 10^-11 M) | Inhibition of Induction of Ornithine Decarboxylase by 12-O-Tetradecanoylphorbol-13-acetate in Mouse Skin, % Inhibition of Control (Ornithine Decarboxylase; Dose 1.7 nmol) [%] | Inhibition of Induction of Ornithine Decarboxylase by 12-O-Tetradecanoylphorbol-13-acetate in Mouse Skin, % Inhibition of Control (Ornithine Decarboxylase; Dose 17 nmol) [%]
1 | CCOC(=O)c1ccc(/C=C(C)/C=C/C2=C(C)CCCC2(C)C)cn1 [Example, (E)-1-(2-Carbethoxy-5-pyridyl)-2-methyl-4-(2,6,6-trimethyl-1-cyclohexen-1-yl)-1,3-butadiene] | 7/7 | 100 | 8/14 | 57 | 4/14 | 29 | 1/7 | 14 | 29 | 68
2 | CC1=C(/C=C/C(C)=C/C=C/C(C)=C/C(=O)O)C(C)(C)CCC1 [Retinoic Acid] | – | 100 | – | 88 | – | 52 | – | – | – | –
